Laboratory results as given in patent publication US6432692B1, “Sensitive bioassay for detecting agonists of the aryl hydrocarbon receptor” (Wisconsin Alumni Research Foundation, priority 1999, dated 2002).

Legend:
[1] = test system: AHR; conditions: mouse hepatoma cells overexpressing ARA9; cited from earlier work
[2] = test system: GR-LexA chimera; assay: GR-LexA chimera β-galactosidase reporter dose-response in yeast strain L40; type: cell-based
Description: Pharmacology in yeast: AHR dose-response curves were performed in the S. cerevisiae strain L40 as described previously (Carver et al., 1994, supra). Two days after plasmid transformation, the colonies were replica plated on media with various concentrations of βNF spread on the surface. The replica plates were then incubated for two days at 30° C. For each dose of βNF, three colonies were suspended in 100 μl of Z-buffer (60 mM Na2HPO4, 40 mM NaH2PO4, 10 mM KCl, 1 MM MgSO4, 35 mM 2-mercaptoethanol) and cell density was estimated by reading the A600. Twenty microliters of the remaining cell suspension was added to 130 μl Z-buffer, 25 μl 0.1%SDS (w/v), 25 μl CHCl3 and disrupted at high speed for 10 sec. Thirty microliters of a 4 mg/ml ONPG solution was added and the mixture incubated for 2-5 min at 30° C. The reaction was stopped by adding 75 μl of 1M NaCO3, the cell debris removed by centrifugation and the A420 was determined. Beta-galactosidase units were determined using the following formula (A420/(A600 of 1/10 dilution of cells×volume of culture×time of incubation))×1,000. […]
Next, the specificity of ARA3 for the AHR signaling pathway in yeast was examined. […] In this system, GR is expressed as a LexA fusion protein in which the LexA binding domain replaces the GR DNA binding domain.

[3] = target: T1, LexA-AHR chimera (Mus musculus, UniProt P30561); assay: LexA-AHR chimera / LexA-operator β-galactosidase reporter dose-response in yeast strain L40; type: cell-based
T1 construct: expressed in transfected cells; host or cells: Saccharomyces cerevisiae strain L40; the other entry of the earlier key: lexA (P0A7C2, LexA repressor)
Description: Pharmacology in yeast: AHR dose-response curves were performed in the S. cerevisiae strain L40 as described previously (Carver et al., 1994, supra). Two days after plasmid transformation, the colonies were replica plated on media with various concentrations of βNF spread on the surface. The replica plates were then incubated for two days at 30° C. For each dose of βNF, three colonies were suspended in 100 μl of Z-buffer (60 mM Na2HPO4, 40 mM NaH2PO4, 10 mM KCl, 1 MM MgSO4, 35 mM 2-mercaptoethanol) and cell density was estimated by reading the A600. Twenty microliters of the remaining cell suspension was added to 130 μl Z-buffer, 25 μl 0.1%SDS (w/v), 25 μl CHCl3 and disrupted at high speed for 10 sec. Thirty microliters of a 4 mg/ml ONPG solution was added and the mixture incubated for 2-5 min at 30° C. The reaction was stopped by adding 75 μl of 1M NaCO3, the cell debris removed by centrifugation and the A420 was determined. Beta-galactosidase units were determined using the following formula (A420/(A600 of 1/10 dilution of cells×volume of culture×time of incubation))×1,000. To examine expression levels of FKBP52 and ARA9 in yeast, we performed western blot analysis on cell extracts as described previously (Hogenesch et al., J. Biol. Chem. 272: 8581-8593, 1997).
ARA9 enhances ligand responsiveness of AHR: Given the sequence similarities between ARA9 and FKBP52, we asked if either protein could influence AHR signaling in vivo. To this end, we employed a LexA-AHR chimera and a LexA-operator-driven β-galactosidase reporter gene in the yeast S. cerevisiae (Carver et al., 1994, supra). Beta-napthoflavone dose-response curves were constructed for the LexA-AHR in the presence and absence of ARA9 (FIG. 5).
ARA3 was a candidate for a novel regulator of AHR signaling because of its ligand-dependent association with AHR in the two-hybrid screen. The influence of ARA3 on AHR signaling was investigated to determine modifier status. To accomplish this, an ARA3 cDNA (lacking the heterologous TAD from the two-hybrid clone, TAD-NΔ113ARA3) was expressed with LexA-NΔ166AHR in the L40 strain of yeast with increasing concentrations of β-NF.

T1 sequence (P30561 with tags, fused parts or gaps): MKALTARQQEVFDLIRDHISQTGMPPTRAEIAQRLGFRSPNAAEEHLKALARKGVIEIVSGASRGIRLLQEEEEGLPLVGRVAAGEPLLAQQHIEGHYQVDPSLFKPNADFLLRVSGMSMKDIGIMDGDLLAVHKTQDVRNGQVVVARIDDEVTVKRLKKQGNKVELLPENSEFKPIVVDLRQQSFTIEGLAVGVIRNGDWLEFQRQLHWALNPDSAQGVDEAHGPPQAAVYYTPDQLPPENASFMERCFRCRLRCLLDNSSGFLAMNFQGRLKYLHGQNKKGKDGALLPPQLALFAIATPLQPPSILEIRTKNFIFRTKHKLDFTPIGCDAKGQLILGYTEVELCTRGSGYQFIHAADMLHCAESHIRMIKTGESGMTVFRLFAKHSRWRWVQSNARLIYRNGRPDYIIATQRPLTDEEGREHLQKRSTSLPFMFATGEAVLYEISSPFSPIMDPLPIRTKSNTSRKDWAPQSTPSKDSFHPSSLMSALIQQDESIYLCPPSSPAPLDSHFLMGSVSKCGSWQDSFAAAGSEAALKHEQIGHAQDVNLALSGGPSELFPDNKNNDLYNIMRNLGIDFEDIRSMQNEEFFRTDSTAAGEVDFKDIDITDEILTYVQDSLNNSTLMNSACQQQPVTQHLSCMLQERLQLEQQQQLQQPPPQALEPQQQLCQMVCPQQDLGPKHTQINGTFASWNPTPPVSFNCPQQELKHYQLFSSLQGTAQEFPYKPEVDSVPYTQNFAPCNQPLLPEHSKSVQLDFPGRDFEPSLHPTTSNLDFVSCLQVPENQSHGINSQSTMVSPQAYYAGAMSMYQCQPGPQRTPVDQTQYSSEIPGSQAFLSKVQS
T1 sequence (P15108 whole entry partner): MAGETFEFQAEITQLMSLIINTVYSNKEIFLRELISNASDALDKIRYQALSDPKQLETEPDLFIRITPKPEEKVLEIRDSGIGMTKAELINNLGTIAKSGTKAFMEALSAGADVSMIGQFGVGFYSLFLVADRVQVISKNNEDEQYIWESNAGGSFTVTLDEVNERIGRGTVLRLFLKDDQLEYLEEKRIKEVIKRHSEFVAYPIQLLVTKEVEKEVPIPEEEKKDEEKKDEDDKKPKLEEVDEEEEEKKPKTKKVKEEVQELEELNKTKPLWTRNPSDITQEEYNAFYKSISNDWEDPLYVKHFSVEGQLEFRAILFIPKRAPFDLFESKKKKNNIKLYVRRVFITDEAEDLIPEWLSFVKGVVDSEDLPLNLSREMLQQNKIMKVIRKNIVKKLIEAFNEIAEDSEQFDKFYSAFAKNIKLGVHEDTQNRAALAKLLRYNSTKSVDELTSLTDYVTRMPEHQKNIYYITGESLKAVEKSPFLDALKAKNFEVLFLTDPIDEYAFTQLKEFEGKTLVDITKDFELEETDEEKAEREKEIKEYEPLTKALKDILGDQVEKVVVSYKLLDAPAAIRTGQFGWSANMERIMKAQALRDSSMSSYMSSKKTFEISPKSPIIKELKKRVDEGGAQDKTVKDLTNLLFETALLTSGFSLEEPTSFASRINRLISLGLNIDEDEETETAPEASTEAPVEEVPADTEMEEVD

Structure (SMILES): Clc1cc2c(cc1Cl)Oc1cc(Cl)c(Cl)cc1O2 [TCDD, 2,3,7,8-tetrachlorodibenzo-p-dioxin]
- increase of response of the system on overexpression of ARA9 [1]: 2-3 fold

Structure (SMILES): C[C@]12CC[C@H]3[C@@H](CCC4=CC(=O)CC[C@@]43C)[C@@H]1CC[C@@H]2C(=O)CO [deoxycorticosterone]
- alteration of signaling profile of GR by ARA3 ([2]; co-expression of ARA3 with NlxC-GR): did not alter the signaling profile
- alteration of response of GR-LexA chimera by ARA9 or FKBP52 ([2]; co-expression of ARA9 or FKBP52): nor could either factor alter the response

Structure (SMILES): O=c1cc(-c2ccccc2)oc2ccc3ccccc3c12 [βNF, Beta-napthoflavone]
- increase of maximal response of AHR by ARA3 ([3]; co-expression of ARA3 (NΔ113ARA3) with LexA-NΔ166AHR): four-fold
- increase of maximal response in the presence of ARA9 ([3]; co-expression of ARA9 versus absence): approximately 2.5 fold
- decrease of EC50 when ARA9 was present ([3]; co-expression of ARA9 versus absence, β-galactosidase, ONPG assay): approximately 5 fold
- shift in AHR dose-response elicited by FKBP52 ([3]; co-expression of FKBP52): could not be elicited
- shift of dose-response curve by ARA3 ([3]; co-expression of NΔ113ARA3 with LexA-NΔ166AHR): shifted the curve to the left
